Results: US10806142B2, “2-amino-5-ketoxime-pyrimidine derivatives and their use for controlling undesired plant growth” (Bayer CropScience Aktiengesellschaft, priority 2015, dated 2020)

What was measured:
[1] = logp (HCOOH), physicochemical characterization; conditions: HCOOH (formic acid)
Cyperus esculentus [2] = test: Pre-emergence herbicidal effect; assay type: in vivo; conditions: dosage 320 g a.i./ha
Description: (§1) 1. Pre-Emergence Herbicidal Effect and Crop Plant Compatibility Seeds of monocotyledonous and dicotyledonous weed plants and crop plants are laid out in wood-fiber pots in sandy loam and covered with soil. The compounds of the invention, formulated in the form of wettable powders (WP) or as emulsion concentrates (EC), are then applied to the surface of the covering soil as aqueous suspension or emulsion at a water application rate equating to 600 to 800 L/ha with addition of 0.2% wetting agent. After the treatment, the pots are placed in a greenhouse and kept under good growth conditions for the trial plants. The damage to the trial plants is scored visually after a trial duration of 3 weeks by comparison with untreated controls (herbicidal activity in percent (%): 100% efficacy=the plants have died, 0% efficacy=like control plants). [table]

Viola tricolor [3] = test: Pre-emergence herbicidal effect; assay type: in vivo
Description: as §1

Stellaria media [4] = test: Pre-emergence herbicidal effect; assay type: in vivo
Description: as §1

Polygpnum convolvulus [5] = test: Pre-emergence herbicidal effect; assay type: in vivo
Description: as §1

Avena fatua = test: Pre-emergence herbicidal effect; assay type: in vivo; conditions: dosage 320 g a.i./ha
Description: as §1

Amaranthus retroflexus [6] = test: Pre-emergence herbicidal effect; assay type: in vivo
Description: as §1

Echinochloa crus-galli = test: Pre-emergence herbicidal effect; assay type: in vivo
Description: as §1

Alopecurus myosuroides = test: Pre-emergence herbicidal effect; assay type: in vivo; conditions: dosage 320 g a.i./ha
Description: as §1

Veronica persica = test: Pre-emergence herbicidal effect; assay type: in vivo
Description: as §1

Setaria viridis [7] = test: Pre-emergence herbicidal effect; assay type: in vivo
Description: as §1

Matricaria inodora [8] = test: Pre-emergence herbicidal effect; assay type: in vivo
Description: as §1

Viola tricolor [9] = test: Post-emergence herbicidal effect; assay type: in vivo; conditions: visual score after about 3 weeks
Experimental: (§2) [table] 2. Post-Emergence Herbicidal Effect and Crop Plant Compatibility Seeds of monocotyledonous and dicotyledonous weed and crop plants are laid out in sandy loam in wood-fiber pots, covered with soil and cultivated in a greenhouse under good growth conditions. 2 to 3 weeks after sowing, the test plants are treated at the one-leaf stage. The compounds of the invention, formulated in the form of wettable powders (WP) or as emulsion concentrates (EC), are then sprayed onto the green parts of the plants as aqueous suspension or emulsion at a water application rate equating to 600 to 800 L/ha with addition of 0.2% wetting agent. After the trial plants have been left to stand in a greenhouse under optimal growth conditions for about 3 weeks, the efficacy of the formulations is scored visually in comparison to untreated controls (herbicidal action in percent (%): 100% efficacy=the plants have died, 0% efficacy=like control plants).

Ipomoea purpurea = test: Post-emergence herbicidal effect; assay type: in vivo; conditions: visual score after about 3 weeks
Experimental: as §2

Stellaria media [10] = test: Post-emergence herbicidal effect; assay type: in vivo; conditions: visual score after about 3 weeks
Experimental: as §2

Polygpnum convolvulus [11] = test: Post-emergence herbicidal effect; assay type: in vivo; conditions: visual score after about 3 weeks
Experimental: as §2

Amaranthus retroflexus [12] = test: Post-emergence herbicidal effect; assay type: in vivo; conditions: visual score after about 3 weeks
Experimental: as §2

Setaria viridis [13] = test: Post-emergence herbicidal effect; assay type: in vivo; conditions: dosage 320 g a.i./ha, visual score after about 3 weeks
Experimental: as §2

Abutilon theophrasti = test: Post-emergence herbicidal effect; assay type: in vivo; conditions: visual score after about 3 weeks
Experimental: as §2

Matricaria inodora [14] = test: Post-emergence herbicidal effect; assay type: in vivo; conditions: visual score after about 3 weeks
Experimental: as §2

Cyperus esculentus [15] = test: Post-emergence herbicidal effect; assay type: in vivo; conditions: dosage 320 g a.i./ha, visual score after about 3 weeks
Experimental: as §2

SMILES: CC/C(=N/O)c1cnc(N[C@H]2c3cc(C)ccc3C[C@@H]2C)nc1CC [Compound 1.40b, N-[(1R,2S)-2,6-dimethyl-2,3-dihydro-1H-inden-1-yl]-4-ethyl-5-[(1Z)-N-hydroxypropanimidoyl]pyrimidine-2-amine]
- chromatographic logP [1]: 3.86
- Herbicidal activity against CYPES (Cyperus esculentus [2]): 100%
- Herbicidal activity against VIOTR (Viola tricolor [3]; dosage 80 g a.i./ha): 100%
- Herbicidal activity against VIOTR (Viola tricolor [3]; dosage 320 g a.i./ha): 100%
- Herbicidal activity against STEME (Stellaria media [4]; dosage 80 g a.i./ha): 90%
- Herbicidal activity against STEME (Stellaria media [4]; dosage 320 g a.i./ha): 100%
- Herbicidal activity against POLCO (Polygpnum convolvulus [5]; dosage 80 g a.i./ha): 100%
- Herbicidal activity against POLCO (Polygpnum convolvulus [5]; dosage 320 g a.i./ha): 100%
- Herbicidal activity against AVEFA (Avena fatua): 90%
- Herbicidal activity against AMARE (Amaranthus retroflexus [6]; dosage 80 g a.i./ha): 100%
- Herbicidal activity against AMARE (Amaranthus retroflexus [6]; dosage 320 g a.i./ha): 100%
- Herbicidal activity against ECHCG (Echinochloa crus-galli; dosage 80 g a.i./ha): 90%
- Herbicidal activity against ECHCG (Echinochloa crus-galli; dosage 320 g a.i./ha): 100%
- Herbicidal activity against ALOMY (Alopecurus myosuroides): 80%
- Herbicidal activity against VERPE (Veronica persica; dosage 80 g a.i./ha): 100%
- Herbicidal activity against VERPE (Veronica persica; dosage 320 g a.i./ha): 100%
- Herbicidal activity against SETVI (Setaria viridis [7]; dosage 80 g a.i./ha): 100%
- Herbicidal activity against SETVI (Setaria viridis [7]; dosage 320 g a.i./ha): 100%
- Herbicidal activity against MATIN (Matricaria inodora [8]; dosage 80 g a.i./ha): 90%
- Herbicidal activity against MATIN (Matricaria inodora [8]; dosage 320 g a.i./ha): 100%
- Herbicidal activity against VIOTR (Viola tricolor [9]; dosage 80 g a.i./ha): 90%
- Herbicidal activity against VIOTR (Viola tricolor [9]; dosage 320 g a.i./ha): 90%
- Herbicidal activity against PHBPU (Ipomoea purpurea; dosage 80 g a.i./ha): 80%
- Herbicidal activity against PHBPU (Ipomoea purpurea; dosage 320 g a.i./ha): 90%
- Herbicidal activity against STEME (Stellaria media [10]; dosage 80 g a.i./ha): 70%
- Herbicidal activity against STEME (Stellaria media [10]; dosage 320 g a.i./ha): 80%
- Herbicidal activity against POLCO (Polygpnum convolvulus [11]; dosage 80 g a.i./ha): 80%
- Herbicidal activity against POLCO (Polygpnum convolvulus [11]; dosage 320 g a.i./ha): 80%
- Herbicidal activity against AMARE (Amaranthus retroflexus [12]; dosage 80 g a.i./ha): 90%
- Herbicidal activity against AMARE (Amaranthus retroflexus [12]; dosage 320 g a.i./ha): 100%
- Herbicidal activity against SETVI (Setaria viridis [13]): 90%

SMILES: CCO/N=C(\C)c1cnc(N[C@H]2c3cc(C)ccc3C[C@@H]2C)nc1 [Compound 1.103a, N-[(1R,2S)-2,6-Dimethyl-2,3-dihydro-1H-inden-1-yl]-5-[(1E)-N-ethoxyethanimidoyl]pyrimidine-2-amine]
- Herbicidal activity against VIOTR (Viola tricolor [3]; dosage 80 g a.i./ha): 100%
- Herbicidal activity against VIOTR (Viola tricolor [3]; dosage 320 g a.i./ha): 100%
- Herbicidal activity against STEME (Stellaria media [4]; dosage 80 g a.i./ha): 100%
- Herbicidal activity against STEME (Stellaria media [4]; dosage 320 g a.i./ha): 100%
- Herbicidal activity against POLCO (Polygpnum convolvulus [5]; dosage 320 g a.i./ha): 100%
- Herbicidal activity against AMARE (Amaranthus retroflexus [6]; dosage 80 g a.i./ha): 100%
- Herbicidal activity against AMARE (Amaranthus retroflexus [6]; dosage 320 g a.i./ha): 100%
- Herbicidal activity against ECHCG (Echinochloa crus-galli; dosage 320 g a.i./ha): 100%
- Herbicidal activity against SETVI (Setaria viridis [7]; dosage 320 g a.i./ha): 100%
- Herbicidal activity against MATIN (Matricaria inodora [8]; dosage 80 g a.i./ha): 90%
- Herbicidal activity against MATIN (Matricaria inodora [8]; dosage 320 g a.i./ha): 100%
- Herbicidal activity against VIOTR (Viola tricolor [9]; dosage 80 g a.i./ha): 90%
- Herbicidal activity against VIOTR (Viola tricolor [9]; dosage 320 g a.i./ha): 90%
- Herbicidal activity against PHBPU (Ipomoea purpurea; dosage 80 g a.i./ha): 80%
- Herbicidal activity against PHBPU (Ipomoea purpurea; dosage 320 g a.i./ha): 90%
- Herbicidal activity against STEME (Stellaria media [10]; dosage 80 g a.i./ha): 90%
- Herbicidal activity against STEME (Stellaria media [10]; dosage 320 g a.i./ha): 90%
- Herbicidal activity against ABUTH (Abutilon theophrasti; dosage 320 g a.i./ha): 90%
- Herbicidal activity against POLCO (Polygpnum convolvulus [11]; dosage 80 g a.i./ha): 90%
- Herbicidal activity against POLCO (Polygpnum convolvulus [11]; dosage 320 g a.i./ha): 100%
- Herbicidal activity against MATIN (Matricaria inodora [14]; dosage 320 g a.i./ha): 80%

SMILES: C/C(=N\Oc1ccc(F)cc1)c1cnc(N[C@H]2c3cc(C)ccc3C[C@@H]2C)nc1 [Compound 1.101a, N-[(1R,2S)-2,6-Dimethyl-2,3-dihydro-1H-inden-1-yl]-5-[(1E)-N-(4-fluorophenoxy)ethanimidoyl]pyrimidine-2-amine]
- chromatographic logP [1]: 5.34
- Herbicidal activity against CYPES (Cyperus esculentus [2]): 90%
- Herbicidal activity against VIOTR (Viola tricolor [3]; dosage 320 g a.i./ha): 100%
- Herbicidal activity against STEME (Stellaria media [4]; dosage 80 g a.i./ha): 100%
- Herbicidal activity against STEME (Stellaria media [4]; dosage 320 g a.i./ha): 100%
- Herbicidal activity against POLCO (Polygpnum convolvulus [5]; dosage 80 g a.i./ha): 90%
- Herbicidal activity against AMARE (Amaranthus retroflexus [6]; dosage 80 g a.i./ha): 90%
- Herbicidal activity against AMARE (Amaranthus retroflexus [6]; dosage 320 g a.i./ha): 100%
- Herbicidal activity against ECHCG (Echinochloa crus-galli; dosage 320 g a.i./ha): 100%
- Herbicidal activity against VERPE (Veronica persica; dosage 80 g a.i./ha): 100%
- Herbicidal activity against VERPE (Veronica persica; dosage 320 g a.i./ha): 100%
- Herbicidal activity against MATIN (Matricaria inodora [8]; dosage 80 g a.i./ha): 80%
- Herbicidal activity against MATIN (Matricaria inodora [8]; dosage 320 g a.i./ha): 100%
- Herbicidal activity against VIOTR (Viola tricolor [9]; dosage 80 g a.i./ha): 90%
- Herbicidal activity against VIOTR (Viola tricolor [9]; dosage 320 g a.i./ha): 90%
- Herbicidal activity against STEME (Stellaria media [10]; dosage 80 g a.i./ha): 90%
- Herbicidal activity against STEME (Stellaria media [10]; dosage 320 g a.i./ha): 90%
- Herbicidal activity against ABUTH (Abutilon theophrasti; dosage 80 g a.i./ha): 90%
- Herbicidal activity against ABUTH (Abutilon theophrasti; dosage 320 g a.i./ha): 100%
- Herbicidal activity against POLCO (Polygpnum convolvulus [11]; dosage 80 g a.i./ha): 100%
- Herbicidal activity against POLCO (Polygpnum convolvulus [11]; dosage 320 g a.i./ha): 100%
- Herbicidal activity against SETVI (Setaria viridis [13]): 80%

SMILES: CCO/N=C(/C)c1cnc(N[C@H]2c3cc(C)ccc3C[C@@H]2C)nc1 [Compound 1.103b, N-[(1R,2S)-2,6-dimethyl-2,3-dihydro-1H-inden-1-yl]-5-[(1Z)-N-ethoxyethanimidoyl]pyrimidine-2-amine]
- chromatographic logP [1]: 4.92
- Herbicidal activity against VIOTR (Viola tricolor [3]; dosage 80 g a.i./ha): 100%
- Herbicidal activity against VIOTR (Viola tricolor [3]; dosage 320 g a.i./ha): 100%
- Herbicidal activity against STEME (Stellaria media [4]; dosage 80 g a.i./ha): 100%
- Herbicidal activity against STEME (Stellaria media [4]; dosage 320 g a.i./ha): 100%
- Herbicidal activity against POLCO (Polygpnum convolvulus [5]; dosage 80 g a.i./ha): 100%
- Herbicidal activity against POLCO (Polygpnum convolvulus [5]; dosage 320 g a.i./ha): 100%
- Herbicidal activity against AMARE (Amaranthus retroflexus [6]; dosage 80 g a.i./ha): 80%
- Herbicidal activity against AMARE (Amaranthus retroflexus [6]; dosage 320 g a.i./ha): 100%
- Herbicidal activity against ECHCG (Echinochloa crus-galli; dosage 320 g a.i./ha): 100%
- Herbicidal activity against VERPE (Veronica persica; dosage 80 g a.i./ha): 100%
- Herbicidal activity against VERPE (Veronica persica; dosage 320 g a.i./ha): 100%
- Herbicidal activity against SETVI (Setaria viridis [7]; dosage 320 g a.i./ha): 90%
- Herbicidal activity against MATIN (Matricaria inodora [8]; dosage 80 g a.i./ha): 100%
- Herbicidal activity against MATIN (Matricaria inodora [8]; dosage 320 g a.i./ha): 100%
- Herbicidal activity against CYPES (Cyperus esculentus [15]): 80%
- Herbicidal activity against VIOTR (Viola tricolor [9]; dosage 80 g a.i./ha): 90%
- Herbicidal activity against VIOTR (Viola tricolor [9]; dosage 320 g a.i./ha): 100%
- Herbicidal activity against PHBPU (Ipomoea purpurea; dosage 320 g a.i./ha): 90%
- Herbicidal activity against STEME (Stellaria media [10]; dosage 80 g a.i./ha): 80%
- Herbicidal activity against STEME (Stellaria media [10]; dosage 320 g a.i./ha): 90%
- Herbicidal activity against ABUTH (Abutilon theophrasti; dosage 80 g a.i./ha): 90%
- Herbicidal activity against ABUTH (Abutilon theophrasti; dosage 320 g a.i./ha): 100%
- Herbicidal activity against POLCO (Polygpnum convolvulus [11]; dosage 80 g a.i./ha): 90%
- Herbicidal activity against POLCO (Polygpnum convolvulus [11]; dosage 320 g a.i./ha): 100%
- Herbicidal activity against SETVI (Setaria viridis [13]): 80%
- Herbicidal activity against MATIN (Matricaria inodora [14]; dosage 80 g a.i./ha): 80%
- Herbicidal activity against MATIN (Matricaria inodora [14]; dosage 320 g a.i./ha): 100%
